Experimental data from publication PMC10298051, “Hyperoside as a UV Photoprotective or Photostimulating Compound—Evaluation of the Effect of UV Radiation with Selected UV-Absorbing Organic Compounds on Skin Cells” (International Journal of Molecular Sciences, 2023).

Legend:
[1] = test system: PANC-1 (pancreatic cancer); set-up: method as in PMID 26676634; conditions: PANC-1, 24 h; read-out: concentration that halved cell viability; cited from earlier work
HaCaT cells [2] = assay: Comet assay of DNA fragmentation in pre-treated HaCaT cells after UVA or UVB; format: cell-based, human; conditions: UVA 90 min 36 J/cm^2, HMBP 30 μM, 4-MBC 10 μM, t-UCA 300 μM, Ast 100 μM, Hyp 300 μM
Method: DNA damage caused by UVA or UVB radiation to the HaCaT cells pre-treated with UV-absorbing compounds was investigated by a comet assay. The growth medium was replaced by PBS-G and the cells were irradiated by means of the UVA or UVB sources for 90 or 8 min, respectively. After irradiation, PBS-G medium was replaced with DMEM and the cells were allowed to culture for 24 h. The Comet assay was performed as previously described by Manisova and her co-workers. The samples were finally stained by SYBR Green (Invitrogen, Thermo Fisher Scientific, Waltham, MA, USA) and manually scored using an Olympus IX 70 inverted fluorescence microscope with a CCD camera (Olympus, JPN) and CometScore 2.0 software (TriTek, Wilmington, DE, USA). Approximately 100 cells were randomly selected from each sample to assess DNA damage. The amount of DNA in the head (corresponding to low fragmentation) was evaluated.

[3] = test system: H1975 (non-small cell lung cancer); conditions: H1975, 24 h; read-out: concentration that halved cell viability; cited from earlier work
HaCaT cells [4] = assay: Atomic force microscopy of HaCaT cell morphology after UV irradiation; format: cell-based, human; conditions: 50 µM for 4 h
Method: The size of HaCaT cells acquired by an atomic force microscope was calculated from 20 cells in an average using the NanoScope Analysis software. Cell diameter was measured along the longest part of the cell. Cells were first incubated with 50 µM hyperoside for 4 h and then irradiated with UVA radiation. […] Irradiating the cells by UV led to cluster disruption and changes in shape. It caused cell swelling, resulting in a decrease in the diameter (19.16 μm for UVA; 23.13 μm for UVB), an increase in the height (4.24 μm for UVA; 3.44 μm for UVB), and an overall elliptic shape compared to control cells (Figure 9). However, the pre-treatment of the cells with hyperoside prevented cells from those UVA-induced morphological changes. After the irradiation, the cells still formed clusters and there were no significant changes in the median of the diameter (29.87 μm) and median of the height (2.24 μm).
HaCaT cells were seeded in Petri dishes (Willco, NLD) containing 2 mL of DMEM. The following day, the cells were exposed to UVA for 90 min and UVB for 20 min. Some cells were pre-incubated with 50 μM hyperoside for 4 h. Before irradiation, the growth medium was replaced with fresh DMEM. Immediately after irradiation, AFM measurements were performed using a Bioscope Catalyst atomic force microscope (Bruker, Billerica, MA, USA). The size of the cell scan was 100 × 100 μm and the scan rate was 0.2–0.3 Hz. […]

[5] = test system: A549 (lung adenocarcinoma); set-up: method as in PMID 31881478; conditions: A549, 24 h; read-out: concentration that halved cell viability; cited from earlier work
epidermis model EpiDerm = assay: MTT viability of pre-treated 3D epidermis model EpiDerm after UVA or UVB exposure; format: cell-based, human; conditions: 30 μM hyperoside or 100 μM trans-urocanic acid; 18 h or 42 h pre-incubation; UVA 24 or 36 J/cm^2
Method: Control samples without the presence of the compounds are marked as C. Each value represents mean ± S.E. from 3 measurements. * Significant difference compared to the sample without UV-absorbing compound (p < 0.05).
(§1) The immortalized human keratinocytes HaCaT and reconstituted three-dimensional human epidermis model (EpiDerm, MatTek Europe, SVK) were grown in high-glucose DMEM (Sigma-Aldrich, Burlington, MA, USA) supplemented with sodium bicarbonate (3.7 g/L, Sigma-Aldrich, Burlington, MA, USA), fetal bovine serum (10% v/v, Biowest, France), and penicillin and streptomycin (100 U/mL and 100 μg/mL, respectively, Sigma-Aldrich, Burlington, MA, USA) in darkness under a humidified atmosphere with 5% CO2 at 37 °C. For all experiments, HaCaT was dissociated using TrypLE Express (Gibco by Thermo Fisher Scientific, Waltham, MA, USA) and transferred into 12-well plates at a total number of 1 × 10^5 cells and cultivated for 24 h. The UV sources with relatively homogeneous irradiance were made from commercially available phototherapeutic UV tubes [13]. […] The irradiance values were 6.8 ± 0.4 mW/cm^2 for the UVA source and 3.5 ± 0.4 mW/cm^2 for the UVB source.
[…] The absorbance of these solutions was spectroscopically measured at 570 nm. The relative number of viable (oxidoreductase active) cells in the treated and untreated samples (controls) was expressed as a percentage.

HaCaT cells [6] = assay: Mitochondrial membrane potential (JC-1) in pre-treated HaCaT cells after UVA or UVB; format: cell-based, human; conditions: JC-1, concentration-dependent, UVA 24 J/cm^2 or UVB 1.2 J/cm^2
Method: The mitochondrial membrane potential in HaCaT cells was estimated using the fluorescent probe 5,5′,6,6′-tetrachloro-1,1′,3,3′ tetraethylbenzimidazolylcarbocyanine chloride (JC-1, Biotium, Fremont, CA, USA). After UV irradiation in PBS-G, JC-1 was added to the cells at the final assay concentration of 2 μg/mL and the cells were allowed to incubate for 20 min. Then, the fluorescence emission intensity was measured using a Tecan Infinite 200pro fluorescence reader at excitation and emission wavelengths of 490 nm and 590 nm, respectively.

HaCaT cells [7] = assay: Phototoxicity test: MTT viability of pre-treated HaCaT cells after UVA or UVB exposure; format: cell-based, human; conditions: 18 h pre-incubation; for change in cell viability after UVA: UVA 60 min 24 J/cm^2, vs irradiated sample without compound
Method: In the next study, HaCaT cells were incubated with two apparently non-toxic concentrations of these UV-absorbing compounds for 18 h and then their effect on the viability of HaCaT cells exposed to UVA (for 60 min at a dose of 24 J/cm^2) and UVB radiation for 3 min (at a dose of 0.6 J/cm^2) was monitored.
as §1
(§2) HaCaT cells and Epiderm were incubated for 18 h in DMEM supplemented with UV-absorbing compounds. Irradiation of the culture cells was performed in 0.6 mL/well phosphate-buffered saline (PBS) supplemented with 5 mM glucose (PBS-G) in 12-well plates. In the case of the 3D epidermal models, for irradiation, 3 inserts were always placed in one well of a 6-well plate filled with 0.9 mL of PBS-G; otherwise, they were kept separately in a 24-well plate with 0.3 mL of DMEM per well. After irradiation, PBS was replaced with fresh DMEM and the plates with cells were placed in a CO2 incubator for 18 h. The MTT assay was initiated by adding 5 mg/mL of methylthiazol tetrazolium bromide (MTT, Sigma-Aldrich) to DMEM, resulting in a 10-fold lower concentration of MTT in each well. After 3 h, the medium was completely removed and the formazan crystals produced by the cells were dissolved in 0.6 mL of DMSO for cell cultures or in 2 mL of isopropanol for epidermal models. The absorbance of these solutions was spectroscopically measured at 570 nm.

HaCaT cells [8] = assay: Intracellular ROS production (CM-H2DCFDA) in pre-treated HaCaT cells after UVA or UVB; format: cell-based, human; conditions: for ROS production during UVA exposure: UVA 60 min 24 J/cm^2
Method: The production of the intracellular ROS induced by UVA or UVB after 18 h of incubation with UV-absorbing compounds was analyzed using the fluorescence probe 5-(and-6)-chloromethyl-2′,7′-dichlorodihydrofluorescein diacetate (CM-H2DCFDA, Invitrogen by Thermo Fisher Scientific, Waltham, MA, USA). The HaCaT cells were incubated in PBS-G buffer supplemented with 10 μM CM-H2DCFDA for 20 min and then, after washing twice in PBS-G, exposed to UVA or UVB radiation for 60 or 3 min. After irradiation, the fluorescence of CM-DCF was recorded using a Tecan Infinite 200 pro fluorescence reader (Tecan, Männedorf, Switzerland) at excitation and emission wavelengths 490 nm and 525 nm, respectively.

HaCaT cells [9] = assay: Cytotoxicity (MTT) of UV-absorbing compounds in HaCaT culture without irradiation; format: cell-based, human; conditions: for cell viability (not reduced below): at 300 μM
Method: as §1, §2

[10] = as above; format: cell-based, human; conditions: human, HaCaT keratinocytes, MTT, no irradiation, mean of 3 measurements
Method: as §1, §2

[11] = 100 μM, UVB 3 min 0.6 J/cm^2, vs irradiated sample without compound

O=c1c(O[C@@H]2O[C@H](CO)[C@H](O)[C@H](O)[C@H]2O)c(-c2ccc(O)c(O)c2)oc2cc(O)cc(O)c12 [hyperoside]
IC50 [1]: ~550 µM
DNA fragmentation after UVA (percentage of DNA in comet heads) (HaCaT cells [2]): reduction in DNA fragmentation
IC50 [3]: ~100 µM
median of the cell height after UVA (HaCaT cells [4]; then UVA 36 J/cm^2, untreated control 2.02 μm, UVA alone 4.24 μm): 2.24 μm
median of the cell diameter after UVA (HaCaT cells [4]; then UVA 36 J/cm^2, untreated control 31.21 μm, UVA alone 19.16 μm): 29.87 μm
IC50 [5]: ~400 µM
change in viability of EpiDerm after UVA irradiation (epidermis model EpiDerm): significantly increased its viability
change in mitochondrial membrane potential after UV (HaCaT cells [6]): opposite effect
change in cell viability after UVA (HaCaT cells [7]; 100 μM): also observed for UVA radiation, although to a lesser extent
change in cell viability after UVB (HaCaT cells [7]; [11]): statistically significant increase in cell viability
ROS production during UVA exposure (HaCaT cells [8]; 100 μM): statistically significant decrease in ROS production
ROS induced by UVB irradiation (HaCaT cells [8]; 30 and 100 μM, UVB 3 min 0.6 J/cm^2): effective in reducing ROS
cell viability (not reduced below) (HaCaT cells [9]): ≥ 60%
IC50 at 18 h [10]: > 300 µM

COc1cc(O)c2c(=O)c(OC)c(-c3ccc(O)c(OC)c3)oc2c1 [pachypodol]
change in cell viability after UVB (HaCaT cells [7]; apparently non-toxic concentrations, UVB 0.6 J/cm^2): cell viability decreased significantly
reduction in cell viability (HaCaT cells [9]; at 10 μM): > 50%
IC50 at 18 h [10]: 5.1 µM

O=c1c(O[C@@H]2O[C@H](CO)[C@@H](O)[C@H](O)[C@H]2O)c(-c2ccc(O)cc2)oc2cc(O)cc(O)c12 [astragalin]
DNA fragmentation after UVA (percentage of DNA in comet heads) (HaCaT cells [2]): reduction in DNA fragmentation
IC50 at 18 h [10]: 78 µM

O=C(O)/C=C/c1c[nH]cn1 [trans-urocanic acid]
change in viability of EpiDerm after UVA irradiation (epidermis model EpiDerm): no similar effect was observed
change in cell viability after UVA (HaCaT cells [7]; 100 μM): only linked with UVB radiation
change in cell viability after UVB (HaCaT cells [7]; [11]): statistically significant increase in cell viability
cell viability (not reduced below) (HaCaT cells [9]): ≥ 60%
IC50 at 18 h [10]: 1100 µM

COc1ccc(C(=O)c2ccccc2)c(O)c1 [2-hydroxy-4-methoxybenzophenone]
DNA fragmentation after UVA (percentage of DNA in comet heads) (HaCaT cells [2]): reduction in DNA fragmentation
change in mitochondrial membrane potential after UV (HaCaT cells [6]): higher values of the mitochondrial membrane potential
IC50 at 18 h [10]: 56 µM

CC1=C(/C=C/C(C)=C/C=C/C(C)=C/C=C/C=C(C)/C=C/C=C(C)/C=C/C2=C(C)CCCC2(C)C)C(C)(C)CCC1 [beta-carotene]
change in mitochondrial membrane potential after UV (HaCaT cells [6]): higher values of the mitochondrial membrane potential
IC50 at 18 h [10]: 7.3 µM

Cc1ccc(C=C2C(=O)C3(C)CCC2C3(C)C)cc1 (stereo not shown) [3-(4-methylbenzylidene)camphor]
DNA fragmentation after UVA (percentage of DNA in comet heads) (HaCaT cells [2]): reduction in DNA fragmentation
ROS production during UVA exposure (HaCaT cells [8]; 3 and 10 μM): statistically significant decrease in ROS production
IC50 at 18 h [10]: 28 µM

O=C(c1ccccc1)c1ccc(O)cc1O [2,4-dihydroxybenzophenone]
change in mitochondrial membrane potential after UV (HaCaT cells [6]): higher values of the mitochondrial membrane potential
IC50 at 18 h [10]: 85 µM
